Source: patent US9308198B2, “Treatment, prevention, and reversal of alcohol-induced brain disease” (priority 2006, dated 2016)

Legend:
[1] = system: acetylcholinesterase (AChE) mRNA; settings: ethanol-exposed pup cerebellar tissue vs control
Procedure: (§1) Total RNA was isolated from brain tissue using TRIzol reagent (Invitrogen, Carlsbad, Calif.) according to the manufacturer's protocol. RNA concentrations and purity were determined from the absorbances measured at 260 nm and 280 nm. RNA (2 μg) was reverse transcribed using the AMV First Strand cDNA synthesis kit (Roche Diagnostics Corporation, Indianapolis, Ind.) and random oligodeoxynucleotide primers. Real time quantitative RT-PCR was used to measure mRNA levels of insulin, IGF-I, and IGF-II growth factors, their corresponding receptors, neuronal (Hu), astrocytic (glial fibrillary acidic protein; GFAP), oligodendroglial (myelin-associated glycoprotein-1; MAG-1), microglial (AIF1), and endothelial (endothelin-1; ET-1) cell genes, acetyl cholinesterase (AChE), and choline acetyltransferase (ChAT). Ribosomal 18S RNA levels measured in parallel reactions were used to calculate relative abundance of the mRNA transcripts (Myers et al., Trends Biochem. Sci. 19:289 (1994); Baltensperger et al., Science 260:1950 (1993)). PCR amplifications were performed in 25 μl reactions containing cDNA generated from 2.5 ng of original RNA template, 300 nM each of gene specific forward and reverse primer (Table 1), and 12.5 μl of 2× QuantiTect SYBR Green PCR Mix (Qiagen Inc, Valencia, Calif.). […]

[2] = system: choline acetyltransferase (ChAT) mRNA; settings: ethanol-exposed pup cerebellar tissue vs control
Procedure: as §1

[3] = system: lipid peroxidation and DNA damage in brain; settings: rat, in vivo
Description: (§2) Male (˜200 g) Long Evans rats (Charles River Laboratories, Cambridge, Mass.) were fed isocaloric liquid diets (BioServ, Frenchtown, N.J.) in which ethanol comprised 0% or 37% of the caloric content (9.25% v/v) for 6 weeks (Yeon et al., Hepatology 38:703 (2003)). A chow fed control group was also studied. Rats were monitored daily to ensure equivalent food consumption and maintenance of body weight. Upon sacrifice, the brains were harvested and either immersion fixed in Histochoice fixative (Amresco Corp., Solon, Ohio) for paraffin embedding, or sliced fresh to micro-dissect temporal cortex, hypothalamus, and cerebellum. The fresh tissue blocks were snap frozen in a dry ice-methanol bath and stored at −80° C. for mRNA and protein studies.
(§3) Fixed brains were sectioned in the coronal plane along standardized landmarks and embedded in paraffin. Paraffin-embedded sections (8 μm thick) were stained with hematoxylin and eosin, or immunostained with monoclonal antibodies to 8-hydroxy-deoxyguanosine (8-OHdG) (Oxis Research) or 4-hydroxynonenol (HNE) (Chemicon International, Temecula, Calif.) to detect DNA damage and lipid peroxidation, respectively. Prior to immunostaining, deparaffinized, re-hydrated sections were treated with 0.1 mg/ml saponin in phosphate buffered saline (10 mM sodium phosphate, 0.9% NaCl, pH 7.4; PBS) for 20 minutes at room temperature, followed by 3% hydrogen peroxide in methanol for 10 minutes to quench endogenous peroxidase activity, and then 30 minutes in SuperBlock-TBS (Pierce Chemical Co., Rockford, Ill.) at room temperature to block non-specific binding sites. The sections were incubated overnight at 4° C. with 0.5-1 μg/ml of primary antibody. Immunoreactivity was detected with biotinylated secondary antibody, avidin biotin horseradish peroxidase complex (ABC) reagents, and diaminobenzidine as the chromogen (Vector Laboratories, Burlingame, Calif.) (Lam et al. J. Biol. Chem. 269:20648 (1994)). The tissue sections were counterstained with hematoxylin and examined by light microscopy.

cerebellar cortex = settings: rat, in vivo
Description: as §2, §3

[4] = system: IGF-I receptor tyrosine kinase; settings: cerebellar tissue, ethanol-exposed relative to control pups; normalized to receptor protein; not dose-dependent
Procedure: (§4) Insulin or IGF-I receptor molecules were immunoprecipitated from individual 100 μg protein samples using rabbit polyclonal antibodies (1 μg/ml) and Protein A sepharose (Amersham-Pharmacia, Arlington Heights, Ill.) (Ausubel et al, (2002) Current Protocols in Molecular Biology. John Wiley & Sons New York). Receptor tyrosine kinase activity was measured in the immune precipitates using a non-isotopic assay (Chemicon International, Temecula, Calif.) according to the manufacturer's protocol with small modifications. Briefly, tyrosine phosphorylation of the biotinylated synthetic peptide substrate captured onto streptavidin-coated wells was detected with horseradish peroxidase conjugated anti-phospho-tyrosine and SuperSignal West Pico chemiluminescent substrate (Pierce Chemical Co., Rockford, Ill.). Luminescence was measured in a TopCount machine (Packard Instrument Co., Meriden, Conn.). […]
(§5) Studies were done to characterize the degree to which ethanol-associated impairments in receptor binding were associated with reductions in insulin and IGF-I receptor tyrosine kinase activities, and insulin and IGF-I receptor protein expression. Receptor protein levels were measured by Western blotting with digital image densitometry.

[5] = system: insulin receptor tyrosine kinase; settings: cerebellar tissue, ethanol-exposed relative to control pups; normalized to receptor protein; not dose-dependent
Procedure: as §4, §5

CCO [ethanol]
AChE mRNA expression [1]: increases
ChAT mRNA expression [2]: significant reductions
8-OHdG immunoreactivity (DNA damage) [3]: only detected in scattered cells
HNE immunoreactivity (lipid peroxidation) [3]: conspicuously increased cellular labeling
structural abnormalities in the cerebellar cortex (cerebellar cortex): loss of Purkinje cells and reduced densities of cells within the internal granule layer
IGF-I receptor tyrosine kinase activity [4]: significantly reduced
insulin receptor tyrosine kinase activity [5]: significantly reduced
